Data on 4 molecules can be found in US20240374558A1, “PREPARATION OF PHENE[…] […] STEREOISOMERS THEREOF AND PRECURSORS THEREOF” (priority 2022, published 2024).

In data set [1] the target is T1, norepinephrine transporter (NET) (Rattus norvegicus, UniProt Q63380).
T1 construct: hippocampus plus overlying occipital cortex for norepinephrine transporter assays; from tissue
In words: Competition radioligand binding, [3H]Nisoxetine, brain synaptosome membranes. Also on record: species or system rat (Sprague Dawley). The source says: Rat brain (Sprague Dawley, 200-250 g) synaptosomes were isolated from midbrain and hindbrain for serotonin transporter assays, striatum for dopamine transporter assays, and hippocampus plus overlying occipital cortex for norepinephrine transporter assays. Radioligands used were: [^3H]Citalopram 81.4 Ci/mmol (PerkinElmer NET1039250UC; Lot No. 2960876). [3H]WIN35428 82.8 Ci/mmol (PerkinElmer NET1033250UC; Lot No. 2891473). [^3H]Nisoxetine 79.2 Ci/mmol (PerkinElmer NET1084250UC; Lot No. 2970324). Non-specific compounds used were: Citalopram (Tocris Bioscience 1427). JHW007 (Tocris Bioscience 4351). Nomifensine (Abcam abl46004). Test Compounds for the study were: racemic methylone HCl; (R)-methylone HCl; (S)-methylone HCl.
For membrane preparations, rat brains were dissected, tissue was added to ice-cold lysis buffer (50 mM Tris HCl; 5 mM MgCl2; 5 mM EDTA; protease inhibitor cocktail) and homogenized. […] A sample of the homogenate was analyzed for protein content using the MERCK® BCA assay. […]
Competition binding assays were carried out in 96-well polypropylene plates in a final volume of 250 μL per well. […] Filters were then dried under a warm air stream, sealed in polyethylene, scintillation cocktail added, and the radioactivity counted in a WALLAC® TriLux 1450 MicroBeta counter. […] Ki was subsequently calculated using the ChengPrusoff equation.

Another data set concerns the target NET (Rattus norvegicus, UniProt Q63380). Put plainly: NE release study. It counts as biochemical.
The test system of data set [2] is rat forced swim test (FST). In words: Rat forced swim test (FST). As to conditions: 10 mg/kg, IP. The format is in vivo. How it is done: The forced swim test (FST) is a classic model to assess the antidepressant-like activity of compounds that has been in use for over 40 years (Porsolt et al. (1977) Nature 266:730-732; Detke et al. (1995) Psychopharmacology 121:66-72). […] A single dose of 5 mg/kg methylone reduces immobility by approximately 50% compared to vehicle-treated controls, whereas a 15 mg/kg dose reduces immobility by nearly 100%. Accompanying changes in climbing and/or swimming behavior reflect noradrenergic and serotonergic activities of methylone, respectively.
All FST studies are performed and scored by an experimenter blind to treatment group and according to standard protocols. Briefly, rats are placed in a circular plexiglass container filled with water. Water temperature is maintained at 22-25° C. and changed for every animal. Day 1 (Training) consists of a 15 min acclimation trial, and Day 2 (Testing, 24 h later) consists of the 5 min test. A time sampling procedure is employed where animals are observed every 5 seconds for the duration of the test session (60 counts or 5 minutes) and scored for immobility (defined as the failure to struggle), swimming (defined as a circular movement around the tank), or climbing (defined as an upwards escape behavior). Data are expressed as the percent of the testing session (e.g., the number of immobility counts divided by 60). A p-value less than 0.05 indicates statistical significance after typical statistical analyses (e.g., unpaired t-test or ANOVA).
To determine that the prodrug and/or enantiomer has an antidepressant-like effect and to compare it to methylone, rats are treated with each compound 30 min prior to testing. Additional tests are run 24, 72, 168 hours post-dose or longer. Effects on Fear Extinction in a Model of Post-Traumatic Stress Disorder (PTSD)
Racemic methylone (10 mg/kg, IP) has a maximal antidepressant-like effect in the rat forced swim test (FST), reducing immobility by nearly 100% compared to vehicle treated controls. […]

The conditions of data set [3]: self-administration, healthy volunteers; Lourdes et al. 2021; cited from earlier work.
The subject of another data set is PTSD symptoms. The conditions noted are these: clinical case series of 21 individuals; cited from earlier work.
Data set [4] can be described thus: Pharmacokinetics of methylone after a single IV, PO or IP administration (LC-MS/MS of plasma). It counts as in vivo, male Sprague Dawley rats. How it is done:
The pharmacokinetic properties of methylone after a single administration intravenously (IV), intraperitoneally (IP), or by oral gavage (PO) in male Sprague Dawley rats has been determined using a liquid chromatography tandem mass spectrometry (LC-MS/MS) method that has been established and validated for methylone in the rat. Rats (n=3 per group) received a single dose of methylone: 5 mg/kg IV, 15 mg/kg IP, or 15 mg/kg PO.
To investigate whether the prodrug extends the half-life or alters other basic pharmacokinetic properties of methylone (e.g., Cmax or Tmax), rats are treated with each prodrug IV, IP, or PO. For each compound, three groups of rats are treated as follows: For group 1, a single dose of methylone is administered to 3 male Sprague-Dawley rats by IV bolus at 5 mg/kg. For group 2, a single dose of methylone is administered to 3 male Sprague-Dawley rats by oral gavage (PO) at 15 mg/kg. For group 3, a single dose of methylone is administered to 3 male Sprague-Dawley rats by IP at 15 mg/kg. For all groups, blood samples are collected from each animal at 0.083, 0.25, 0.5, 1, 2, 4, 8, 12, and 24 hours post-dose for the determination of plasma concentrations. The plasma concentrations are quantified by liquid chromatography tandem mass spectrometry (LC-MS/MS). The bioanalytical assay has been established and validated, providing a lower limit of quantification (LLOQ) of 1 ng/mL and an upper limit of quantification (ULOQ) of 3000 ng/mL for methylone. The plasma concentration-time data are analyzed using Phoenix WinNonlin (version 8.3) to characterize the PK properties of the analyte. The non-compartmental analysis model and the linear/log trapezoidal method are applied to calculating the PK parameters.

In data set [5] the test system is open field test (OFT). In words: Open field test (OFT). As to conditions: rat, in vivo. Also on record: species or system rats. The protocol: Additional behavioral testing including the elevated plus maze (EPM) and thigmotaxis in the open field test (OFT) are used to assess the anxiolytic effects of methylone and its prodrugs in mice or rats. […] These models are described in greater detail below. Prodrugs are screened in these behaviors to the anxiolytic efficacy of each compound.
Compounds are screened for their effects on both parameters. Briefly, rodents are assessed in a 30 minute OFT using an automated activity monitoring system. Rodents are acclimated to the room 30 minutes before the start of testing. The following parameters are captured: Horizontal distance travelled, overall ambulatory time, and ambulatory counts. Vertical activity (time and counts), Time in the Center vs. Periphery data are reported in 5-minute bins as well as total time.

For data set [6], the system named is open field test (OFT). As to conditions: 5, 10, 20 mg/kg, SC, rats; Stefkovi et al. 2017; cited from earlier work.
Another data set deals with mouse model of PTSD. Put plainly: Fear extinction in a mouse model of PTSD. The format is in vivo. As to conditions: 30 mg/kg, IP. How it is done:
FIGS. 1A-1D: Methylone improves fear extinction recall in a mouse model of PTSD. (FIG. 1A) Schematic of experimental design. A single CS-US (tone-shock) pairing on day 1 was followed by 6 CS presentations in a novel context (context B). Methylone or saline vehicle was injected 30 min prior to extinction training on day 2. On day 3, the time spent freezing to the CS was quantified. […] (FIG. 1C) The time freezing before vs. during each of 6 cues on day 3 (to control for locomotor effects) are shown. There was a significant cue x drug interaction (F(5,130)=2.409, p<0.05). […] N=12 for methylone group (30 mg/kg, IP, orange diamonds) and N=16 for saline control group (black squares). *p<0.05
Effective PTSD treatments facilitate the disassociation between a traumatic memory and the patient's fear response, making cues for the traumatic memory evoke less of a fear response. This is modeled in the mouse fear extinction paradigm which takes place over 3 days. On day 1 (fear conditioning), mice are trained to acquire a “traumatic memory,” namely associating the conditioned stimulus (CS, tone) to the unconditioned stimulus (US, foot shock). On day 2 (extinction training), they are trained to forget the traumatic memory association by presenting the CS 6 times (with no US) in a novel environment. On day 3 (extinction recall), the mice are “asked” if that tone (CS) still elicits a fearful response, as measured by the time spent freezing when the tone is presented. Less time freezing means better extinction recall. Drugs that improve extinction recall reduce freezing time on day 3, and, therefore, show potential as a PTSD treatment.
Using these methods, prodrugs and/or enantiomers are administered to mice and tested for efficacy in the fear extinction model to evaluate their efficacy to treat PTSD and other memory disorders. Anxiolytic Effects in Other Behavioral Anxiety Models

Data set [7] in a line: XRPD analysis of pre- and post-DVS samples (form stability). It counts as physicochemical. As to conditions: after DVS 5-95-5% RH. The protocol: Two lots of methylone HCl samples were submitted to evaluate the stability of the solid forms under various humidity conditions. Dynamic vapor sorption (DVS) analysis was performed to evaluate the kinetic hygroscopicity and assess if variable humidity XRPD would be necessary, as well as to determine the appropriate humidity condition(s) for such XRPD analysis. Both pre- and post-DVS samples were analyzed by conventional XRPD for solid form confirmation or any potential form changes.
Each sample was prepared in a silicon low background holder using light manual pressure to keep the sample surface flat and level with the reference surface of the sample holder. The single crystal Si low background holder has a circular recess (10 mm diameter and about 0.2 mm depth) that holds the sample. The Rigaku Smart-Lab diffraction system used was configured for Bragg-Brentano reflection geometry using a line source X-ray beam. The Bragg-Brentano geometry was controlled by passive divergence and receiving slits with the sample itself acting as the focusing component for the optics.

Each structure is given as a SMILES string. Where two headings read alike, the source gives them in different places.

T1 sequence (Q63380 1-617): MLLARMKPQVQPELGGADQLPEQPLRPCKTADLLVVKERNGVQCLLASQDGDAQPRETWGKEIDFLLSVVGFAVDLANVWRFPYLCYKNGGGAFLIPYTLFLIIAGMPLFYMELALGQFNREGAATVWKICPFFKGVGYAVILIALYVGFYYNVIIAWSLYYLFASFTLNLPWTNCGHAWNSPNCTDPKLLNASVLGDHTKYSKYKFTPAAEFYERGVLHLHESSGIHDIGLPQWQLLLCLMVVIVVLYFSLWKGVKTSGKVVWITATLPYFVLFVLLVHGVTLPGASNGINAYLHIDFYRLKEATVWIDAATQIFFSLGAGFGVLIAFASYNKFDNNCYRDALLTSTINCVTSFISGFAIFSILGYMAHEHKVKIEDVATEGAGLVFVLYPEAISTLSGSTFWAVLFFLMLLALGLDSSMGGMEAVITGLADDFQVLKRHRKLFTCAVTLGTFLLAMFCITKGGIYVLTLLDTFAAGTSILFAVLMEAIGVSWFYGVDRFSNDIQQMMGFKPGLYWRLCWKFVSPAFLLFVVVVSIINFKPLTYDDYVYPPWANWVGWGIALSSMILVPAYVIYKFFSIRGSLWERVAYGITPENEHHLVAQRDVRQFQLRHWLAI
Chain of NET (Q63380 1-617): as above

The IC50 is the midpoint of a concentration-inhibition curve. By Ki is commonly meant the dissociation constant of the complex between target and ligand, obtained from inhibition or displacement. The EC50 is the concentration needed to bring the measured effect to its halfway point. The low end stands for an effect from little substance, the high end for a need for much substance. Take `CNC(C)C(=O)c1ccc2c(c1)OCO2` (racemic) [Racemic methylone, methylone]: in data set [1], the IC50 worked out at 3100 nM and the affinity corresponds to a Ki of 1460 nM. The same molecule gave a 50% effective concentration (EC50) at NET of 330 nM. The “reduction of immobility compared to vehicle treated controls” value in data set [2] was ~100%.

In the case of `CNC(C)Cc1ccc2c(c1)OCO2` (centres unmarked) [MDMA, 3,4-methylenedioxymethamphetamine, reference compound], in data set [3], the “systolic and diastolic blood pressure” value is reported as “significant increase”.

In general, Tmax refers to the time at which the peak concentration occurs. As usually defined, the Cmax is the peak of the concentration-time curve. In the case of `CNC(C)C(=O)c1ccc2c(c1)OCO2` (centres unmarked) [Methylone, methylone], the “patients with improved PTSD symptoms” value in the data set with PTSD symptoms was 81%. Moreover, in data set [4] (Group 1 (IV), 5 mg/kg), the AUC0-last turned out to be 1200 ± 88.2 ng·h/mL, the C0 was 3018 ± 666 ng/mL, the Cl is 68.3 ± 5.40 mL/min/kg and the MRT0-last was found to be 0.439 ± 0.026 h. In [4] (Group 1 (IV), 5 mg/kg), this molecule registered a Vdss of 1.98 ± 0.230 L/kg. Also, in [4] (Group 2 (PO), 15 mg/kg), the AUC0-last was 2765 ± 657 ng·h/mL, the MRT0-last was 2.99 ± 0.467 h, the T1/2 stood at 3.23 ± 1.99 h and the time to peak (Tmax) is listed as 1.33 ± 0.577 h. The same molecule returned a Cmax in data set [4] (Group 2 (PO), 15 mg/kg, plasma) of 678 ± 243 ng/mL. In data set [4] (Group 3 (IP), 15 mg/kg), this molecule came in with an AUC0-last of 4305 ± 1179 ng·h/mL and an MRT0-last of 1.07 ± 0.211 h. For the same molecule, the maximum concentration (Cmax) in data set [4] (Group 3 (IP), 15 mg/kg, plasma) is 4230 ± 514 ng/mL. Further, the time to peak (Tmax) in data set [4] (male, Sprague Dawley, rat, plasma, Group 3 (IP), 15 mg/kg, read-out: Tmax) worked out at 0.25 h. Further, in the data set on open field test (OFT) [5], the “locomotor activity in the OFT” value is “increases locomotor activity” and the “time in the center vs the periphery in the OFT” value is “reduces time spent in the center vs the periphery”. Further, the “thigmotaxis (time spent hugging the perimeter of the open field)” value in the data set with open field test (OFT) [6] is reported as “reduce thigmotaxis”. Further, in data set [3], the heart rate result was “increase in heart rate”; the “systolic and diastolic blood pressure” value is given as “significant increase”. In addition, in the data set with mouse model of PTSD, the “fear extinction recall (freezing time during the first cue on day 3) vs saline” value is “significantly improves fear extinction recall” and the “locomotor changes on day 3” value is listed as “No locomotor changes”. The “fear extinction recall (freezing time during the first cue on day 3) vs saline” value with mouse model of PTSD (listed as methylone) is “significantly reduced”.

Turning to `CNC(C)C(=O)c1ccc2c(c1)OCO2.Cl` [lot KRR-R&D-2022-II-58, methylone HCl], the “form changes, post-DVS vs pre-DVS XRPD pattern” value in data set [7] was “No form changes”.
